{"source": "paper PMC10484922", "about": "“Discovery of a selective and biologically active low-molecular weight antagonist of human interleukin-1β” (Nature Communications, 2023)", "key": {"[1]": {"tested_on": "normal human dermal fibroblasts stimulated with hIL-1α", "experiment": "Human fibroblast IL-6 release assay, hIL-1α stimulated", "assay_type": "cell-based", "parameters": "IL-1alpha (mean, SD): mean readout (IL-6 release): unit not given here", "details": "Figure 3c; for Mean OD (OD 450nm): compound 1 nM; for IL-1alpha (mean, SD): mean readout (IL-6 release): compound @ 1nM", "protocol": "(§1) We used HEK-Blue™ IL-1β cells that respond specifically to IL-1 (# hkb-il1b, InvivoGen). These cells can detect IL-1α and IL-1β, as these cytokines bind to the same receptor, IL-1R1. They express a Seap reporter gene under the control of the IFN-β minimal promoter fused to five NF-kappaB and five AP-1 binding sites. Thirty microliters (300,000 cells/ml) per well of a 384-well plate were plated overnight. Cells were then stimulated with graded concentrations of cytokines (hIL-1α or hIL-1β) in the absence or presence of canakinumab (Ilaris®, ILARI LYVI 150MG 22GLW.012, batch U003 0409)[22], anakinra (Kineret®, 100 mg/0.67 ml injectable solution, Sobi)[23], or compound (S)-2 (compounds were pre-mixed for 1 h with the cytokine prior to addition to cells) and further incubated overnight before assessment of Seap activity.\nNormal human dermal fibroblasts (NHDF) from Clonetics^TM (LONZA, Cat # CC-2509 (NHDF-Neo), Lot # 0000234242, used at passage ≤14) were seeded at a density of 5000 cells/well in 100 μL of culture medium using 96-well plates (flat bottom, TCT). Treatment with cytokines/compounds was performed as described above. Cells were incubated for another 6 h and were subsequently spun down (320g/3 min). IL-6 was measured in the supernatant by ELISA (BioLegend, # 430503) or HTRF (Cisbio, #62HIL06PEH)."}, "[2]": {"tested_on": "HEK-Blue IL-1β cells stimulated with hIL-1β", "experiment": "HEK293 reporter gene assay, hIL-1β as trigger", "assay_type": "cell-based, human", "details": "inhibitor 3nM", "protocol": "as §1"}}, "data": [{"substance": "canakinumab: anti-hIL-1β antibody [reference compound]", "values": [{"measurement": "Mean OD (OD 450nm)", "setting": "[1]; hu IL-1A 0 pg/mL", "result": 0.041}, {"measurement": "Mean OD (OD 450nm)", "setting": "[1]; hu IL-1A 40 pg/mL", "result": 0.388}, {"measurement": "Mean OD (OD 450nm)", "setting": "[1]; hu IL-1A 80 pg/mL", "result": 0.589}, {"measurement": "Mean OD (OD 450nm)", "setting": "[1]; hu IL-1A 120 pg/mL", "result": 0.693}, {"measurement": "Mean OD (OD 450nm)", "setting": "[1]; hu IL-1A 160 pg/mL", "result": 0.774}, {"measurement": "Mean OD (OD 450nm)", "setting": "[1]; hu IL-1A 200 pg/mL", "result": 0.785}, {"measurement": "IL-1alpha (mean, SD): mean readout (IL-6 release)", "setting": "[1]; hu IL-1a 0 pg/mL", "result": 0}, {"measurement": "IL-1alpha (mean, SD): mean readout (IL-6 release)", "setting": "[1]; hu IL-1a 40 pg/mL", "result": 2114.2}, {"measurement": "IL-1alpha (mean, SD): mean readout (IL-6 release)", "setting": "[1]; hu IL-1a 80 pg/mL", "result": 3604.7}, {"measurement": "IL-1alpha (mean, SD): mean readout (IL-6 release)", "setting": "[1]; hu IL-1a 120 pg/mL", "result": 4369.8}, {"measurement": "IL-1alpha (mean, SD): mean readout (IL-6 release)", "setting": "[1]; hu IL-1a 160 pg/mL", "result": 4969.2}, {"measurement": "IL-1alpha (mean, SD): mean readout (IL-6 release)", "setting": "[1]; hu IL-1a 200 pg/mL", "result": 5051.1}, {"measurement": "reporter gene assay signal, mean (Figure 3d)", "setting": "[2]; IL-1beta 3.04596 pg/ml", "result": 0.06}, {"measurement": "reporter gene assay signal, mean (Figure 3d)", "setting": "[2]; IL-1beta 6.09192 pg/ml", "result": 0.06}, {"measurement": "reporter gene assay signal, mean (Figure 3d)", "setting": "[2]; IL-1beta 12.1838 pg/ml", "result": 0.06}, {"measurement": "reporter gene assay signal, mean (Figure 3d)", "setting": "[2]; IL-1beta 24.3677 pg/ml", "result": 0.06}, {"measurement": "reporter gene assay signal, mean (Figure 3d)", "setting": "[2]; IL-1beta 48.7353 pg/ml", "result": 0.06}, {"measurement": "reporter gene assay signal, mean (Figure 3d)", "setting": "[2]; IL-1beta 97.4707 pg/ml", "result": 0.07}, {"measurement": "reporter gene assay signal, mean (Figure 3d)", "setting": "[2]; IL-1beta 194.941 pg/ml", "result": 0.08}, {"measurement": "reporter gene assay signal, mean (Figure 3d)", "setting": "[2]; IL-1beta 389.883 pg/ml", "result": 0.1}, {"measurement": "reporter gene assay signal, mean (Figure 3d)", "setting": "[2]; IL-1beta 779.766 pg/ml", "result": 0.2}, {"measurement": "reporter gene assay signal, mean (Figure 3d)", "setting": "[2]; IL-1beta 1559.53 pg/ml", "result": 0.42}, {"measurement": "reporter gene assay signal, mean (Figure 3d)", "setting": "[2]; IL-1beta 3119.06 pg/ml", "result": 0.74}, {"measurement": "reporter gene assay signal, mean (Figure 3d)", "setting": "[2]; IL-1beta 6238.12 pg/ml", "result": 1.18}, {"measurement": "reporter gene assay signal, mean (Figure 3d)", "setting": "[2]; IL-1beta 12476.2 pg/ml", "result": 1.55}, {"measurement": "reporter gene assay signal, mean (Figure 3d)", "setting": "[2]; IL-1beta 24952.5 pg/ml", "result": 1.78}, {"measurement": "reporter gene assay signal, mean (Figure 3d)", "setting": "[2]; IL-1beta 49905 pg/ml", "result": 1.85}]}]}
